This note sets out measurements from patent US12240840B2, “Amide-substituted heterocyclic compounds for the treatment of conditions related to the modulation of IL-12, IL-23 and/or IFN-alpha” (BRISTOL-MYERS SQUIBB COMPANY, priority 2018, dated 2025).

A word on the IC50: it is the concentration that inhibits the measured activity by half.

SMILES strings stand for the structures.

This test has as its system IFNα-induced pSTAT5 (pY694) in CD3 positive cells of human whole blood. Briefly: IFNα-Induced STAT Phosphorylation in Human Whole Blood. The format is cell-based. The note with it: Homo sapiens, 1 h compound incubation, 1000 U/mL recombinant human IFNα A/D for 15 min, pSTAT5 in CD3 positive population, read-out: Human WB IFNα-Induced Stat Phosph. (IC50). A digest of the protocol:
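Read-out is median fluorescence intensity of pSTAT5 (pY694) in the CD3-positive gate, by flow cytometry after fix/lyse and permeabilization. Before that, whole human blood anticoagulated with EDTA or ACD-A received compound for an hour and 1000 U/mL IFNα A/D for 15 min.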

`[2H]C([2H])([2H])NC(=O)c1nnc(NC(=O)C2CC2)cc1Nc1cccc(-c2cc(C(=O)N3CCN(O)CC3)n(C)n2)c1OC` [Example 478]: the IC50 is 150 nM.
The value for `[2H]C([2H])([2H])NC(=O)c1nnc(NC(=O)C2CC2)cc1Nc1cccc(-c2ncc(NC(=O)CC#N)s2)c1OC` [Example 284] was more than 10000 nM; that for `[2H]C([2H])([2H])NC(=O)c1nnc(Nc2ccc(C)nn2)cc1Nc1cccc(-c2ncc(CO)s2)c1OC` [Example 393] was 180 nM.
Consider `[2H]C([2H])([2H])NC(=O)c1nnc(NC(=O)C2CC2)cc1Nc1cccc(-c2nc(CN3CCN(C(=O)OC)CC3)no2)c1OC` [Example 138], for which the 50% inhibitory concentration (IC50) was found to be 180 nM.
Then `[2H]C([2H])([2H])NC(=O)c1nnc(NC(=O)C2CC2)cc1Nc1cccc(-c2ncc(C(=O)NCCCC)s2)c1OC` [Example 314], with 260 nM; and `COc1c(Nc2cc(NCC3CC3)nnc2C(N)=O)cccc1-c1noc(CNS(C)(=O)=O)n1` [Example 119], with more than 10000 nM.
Then `[2H]C([2H])([2H])NC(=O)c1nnc(NC(=O)C2CC2)cc1Nc1cccc(-c2nc(CN3CCC(C)CC3)no2)c1OC` [Example 211], with 440 nM; and `[2H]C([2H])([2H])NC(=O)c1nnc(NC(=O)C2CC2)cc1Nc1cccc(-c2nc([C@H](NC(=O)OC(C)(C)C)[C@H](C)OC(C)(C)C)no2)c1OC` [Example 206], with more than 10000 nM.
Then `[2H]C([2H])([2H])NC(=O)c1nnc(NC(=O)C2CC2)cc1Nc1cccc(-c2ncc(CN)s2)c1OC` [Example 260], with 540 nM; and `[2H]C([2H])([2H])NC(=O)c1nnc(NC(=O)C2CC2)cc1Nc1cccc(-c2nc(CNC(=O)CNC)no2)c1OC` [Example 154], with 1110 nM.
For the compound `[2H]C([2H])([2H])NC(=O)c1nnc(NC(=O)C2CC2)cc1Nc1cccc(-c2nc(CC=C)no2)c1OC` [Example 229], the IC50 is more than 10000 nM.
The value for `[2H]C([2H])([2H])NC(=O)c1nnc(NC(=O)C2CC2)cc1Nc1cccc(-c2nc(CN3CCN(C(=O)c4ccccn4)CC3)no2)c1OC` [Example 130] was 490 nM; that for `[2H]C([2H])([2H])NC(=O)c1nnc(NC(=O)C2CC2)cc1Nc1cccc(-c2ncc(NC(=O)COC)s2)c1OC` [Example 283] was 360 nM; that for `[2H]C([2H])([2H])NC(=O)c1nnc(NC(=O)C2CC2)cc1Nc1cccc(-c2noc(C3CCCO3)n2)c1OC` (stereo not drawn) [Example 81] was 180 nM.
Then `CCC(C(=O)NCCOC)c1nc(-c2cccc(Nc3cc(NC(=O)C4CC4)nnc3C(N)=O)c2OC)no1` (stereo not drawn) [Example 56], with 120 nM; and `[2H]C([2H])([2H])NC(=O)c1nnc(NC(=O)C2CC2)cc1Nc1cccc(-c2nc(CNC(=O)CNC(=O)OC(C)(C)C)no2)c1OC` [Example 157], with more than 10000 nM; and `COc1c(Nc2cc(NC(=O)C3CC3)nnc2C(N)=O)cccc1-c1noc(CN(C(C)C)S(C)(=O)=O)n1` [Example 61], with 60 nM.
With `[2H]C([2H])([2H])NC(=O)c1nnc(NC(=O)C2CC2)cc1Nc1cccc(-c2ncc(C(=O)N3CC(C)(C)C3)s2)c1OC` [Example 320], the concentration for half-maximal inhibition (IC50) amounted to 50 nM.
The value for `[2H]C([2H])([2H])NC(=O)c1nnc(NC(=O)C2CC2)cc1Nc1cc(F)cc(-c2cc(C(=O)NCCCCC)n(C)n2)c1OC` [Example 513] was more than 10000 nM; that for `COc1c(Nc2cc(NC(=O)C3CC3)nnc2C(N)=O)cccc1-c1noc(CN(C)S(C)(=O)=O)n1` [Example 44] was 9 nM; that for `[2H]C([2H])([2H])NC(=O)c1cnc(NC(=O)C2CC2)cc1Nc1cccc(-c2cnn(CCNC(=O)OC(C)(C)C)n2)c1OC` [Example 430] was more than 10000 nM.
For `[2H]C([2H])([2H])NC(=O)c1nnc(Nc2ccc(C)nn2)cc1Nc1cccc(-c2ccn(CCNC(=O)COC)n2)c1OC` [Example 542], the IC50 came to 890 nM.
The value for `[2H]C([2H])([2H])NC(=O)c1nnc(NC(=O)C2CC2)cc1Nc1cccc(-c2cc(C(=O)N3CCC3)n(C)n2)c1OC` [Example 538] was 390 nM; that for `[2H]C([2H])([2H])NC(=O)c1nnc(Nc2ccc(OC)nn2)cc1Nc1cccc(-c2csc(C(=O)NCCOC)n2)c1OC` [Example 565] was 250 nM.
Then `[2H]C([2H])([2H])NC(=O)c1nnc(NC(=O)C2CC2)cc1Nc1cccc(-c2nc([C@H](N)[C@H](C)O)no2)c1OC` [Example 204], with 140 nM; and `[2H]C([2H])([2H])NC(=O)c1nnc(NC(=O)C2CC2)cc1Nc1cccc(-c2nc(CN3CCNCC3)no2)c1OC` [Example 126], with 630 nM; and `[2H]C([2H])([2H])NC(=O)c1nnc(NC(=O)C2CC2)cc1Nc1cccc(-c2ncc(CNC(=O)COC)s2)c1OC` [Example 263], with 830 nM.
The value for `COCCNC(=O)c1cnc(-c2cccc(Nc3cc(NC(=O)C4CC4)nnc3C(N)=O)c2OC)s1` [Example 408] was 110 nM.
For the compound `[2H]C([2H])([2H])NC(=O)c1nnc(NC(=O)C2CC2)cc1Nc1cccc(-c2ncc(C(=O)NCCN3CCCC(C)C3)s2)c1OC` (stereo not drawn) [Example 324], the IC50 turned out to be 60 nM.
With `[2H]C([2H])([2H])NC(=O)c1nnc(NC(=O)C2CC2)cc1Nc1cccc(-c2nc(CNC)no2)c1OC` [Example 168], the half-maximal inhibitory concentration (IC50) stood at 230 nM.
With `[2H]C([2H])([2H])NC(=O)c1nnc(Nc2ccc(OC)nn2)cc1Nc1cccc(-c2nc(CN3CCOCC3)no2)c1OC` [Example 238], the IC50 is 80 nM.
The value for `[2H]C([2H])([2H])NC(=O)c1nnc(NC(=O)C2CC2)cc1Nc1cccc(-c2ncc(NC(C)=O)s2)c1OC` [Example 279] was 470 nM.
As for `[2H]C([2H])([2H])NC(=O)c1nnc(NC(=O)C2CC2)cc1Nc1cccc(-c2cc(C(=O)NCC)n(C)n2)c1OC` [Example 457], the IC50 turned out to be 770 nM.
Then `[2H]C([2H])([2H])NC(=O)c1nnc(NC(=O)C2CC2)cc1Nc1cccc(-c2nc([C@@H](COC(C)(C)C)NC(=O)OC(C)(C)C)no2)c1OC` [Example 219], with 5240 nM.
The value for `[2H]C([2H])([2H])NC(=O)c1nnc(NC(=O)C2CC2)cc1Nc1cccc(-c2cc(C(=O)NCC3CCN(C)C3)n(C)n2)c1OC` (stereo not drawn) [Example 528] was 840 nM; that for `[2H]C([2H])([2H])NC(=O)c1nnc(NC(=O)C2CC2)cc1Nc1cccc(-c2ccn(CCNC(=O)CC#N)n2)c1OC` [Example 470] was 340 nM; that for `[2H]C([2H])([2H])NC(=O)c1nnc(NC(=O)C2CC2)cc1Nc1cccc(-c2ncc(C(=O)NCCN3CCN(C)CC3)s2)c1OC` [Example 322] was 80 nM.
The value for `[2H]C([2H])([2H])NC(=O)c1nnc(NC(=O)C2CC2)cc1Nc1cccc(-c2cc(C(=O)NCCC3CCCN3C)n(C)n2)c1OC` (stereo not drawn) [Example 533] was 530 nM.
Consider `[2H]C([2H])([2H])NC(=O)c1nnc(NC(=O)C2CC2)cc1Nc1cccc(-c2ncc(C(=O)NCCC(N)=O)s2)c1OC` [Example 311], for which the IC50 was 200 nM.
The value for `[2H]C([2H])([2H])NC(=O)c1nnc(NC(=O)C2CC2)cc1Nc1cccc(-c2cnn(CCNC(=O)CC#N)n2)c1OC` [Example 435] was 260 nM; that for `COc1c(Nc2cc(NC(=O)C3CC3)nnc2C(N)=O)cccc1-c1nccs1` [Example 406] was 180 nM.
Consider `[2H]C([2H])([2H])NC(=O)c1cnc(NC(=O)C2CC2)cc1Nc1cccc(-c2noc(CN3CCN(S(C)(=O)=O)CC3)n2)c1OC` [Example 95], for which the IC50 was determined as 21 nM.
In the case of `[2H]C([2H])([2H])NC(=O)c1nnc(NC(=O)C2CC2)cc1Nc1cccc(-c2cnn(CC(=O)NCCOC)n2)c1OC` [Example 426, 6-(cyclopropanecarboxamido)-4-((2-methoxy-3-(2-(2-((2-methoxyethyl)amino)-2-oxoethyl)-2H-1,2,3-triazol-4-yl)phenyl)amino)-N-trideuteromethylpyridazine-3-carboxamide], the IC50 is 30 nM.
The value for `[2H]C([2H])([2H])NC(=O)c1nnc(NC(=O)C2CC2)cc1Nc1cccc(-c2ccn(CCNC(=O)OC(C)(C)C)n2)c1OC` [Example 464] was 1110 nM; that for `[2H]C([2H])([2H])NC(=O)c1nnc(NC(=O)C2CC2)cc1Nc1cc(F)cc(-c2cc(NS(C)(=O)=O)n(C)n2)c1OC` [Example 501] was 1130 nM.
The value for `[2H]C([2H])([2H])NC(=O)c1nnc(NC(=O)C2CC2)cc1Nc1cccc(-c2noc(CNS(C)(=O)=O)n2)c1OC` [Example 32] was 80 nM; that for `[2H]C([2H])([2H])NC(=O)c1nnc(NC(=O)C2CC2)cc1Nc1cccc(-c2nc([C@H](N)CO)no2)c1OC` [Example 221] was 160 nM.
For the compound `[2H]C([2H])([2H])NC(=O)c1nnc(NC(=O)C2CC2)cc1Nc1cccc(-c2ncc(C(=O)N3CC(N(C)C)C3)s2)c1OC` [Example 334], the IC50 is 50 nM.
With `[2H]C([2H])([2H])NC(=O)c1nnc(Nc2ccc(OCC)nn2)cc1Nc1cc(F)cc(-c2cc(C(C)(C)O)n(C)n2)c1OC` [Example 545], the concentration for half-maximal inhibition (IC50) amounted to 220 nM.
Then `COc1c(Nc2cc(NC(=O)C3CC3)ncc2C#N)cccc1-c1nc(CN2CCN(S(C)(=O)=O)CC2)no1` [Example 578], with 4340 nM; and `[2H]C([2H])([2H])NC(=O)c1nnc(NC(=O)C2CC2)cc1Nc1cccc(-c2nc(C(=O)N(C)C)cs2)c1OC` [Example 276], with 690 nM.
Then `[2H]C([2H])([2H])NC(=O)c1nnc(NC(=O)C2CC2)cc1Nc1cccc(-c2nc([C@@H](NC(=O)OC(C)(C)C)[C@@H](C)OC(C)(C)C)no2)c1OC` [Example 185], with more than 10000 nM; and `COc1c(Nc2cc(NC(=O)C3CC3)nnc2C(N)=O)cccc1-c1ncc(C(=O)NCCC2CCCN2C)o1` (stereo not drawn) [Example 415], with 40 nM; and `[2H]C([2H])([2H])NC(=O)c1nnc(NC(=O)C2CC2)cc1Nc1cccc(-c2nc([C@@H](N)CO)no2)c1OC` [Example 201], with 290 nM.
